Values quoted from earlier work in patent US20020004584A1, “HIV immune adjuvant therapy” (priority 2000, published 2002).
One block for each molecule: values may come before it.

How the values were obtained:
HIV-1 = settings: preclinical studies
[1] = in vivo
[2] = in vivo; remark: listed apart in the source

SMILES: NC(=O)NO [Hydroxyurea]
effect on the activity of didanosine (HIV-1): synergistic effect

SMILES: CC(C)c1nc(CN(C)C(=O)N[C@H](C(=O)N[C@@H](Cc2ccccc2)C[C@H](O)[C@H](Cc2ccccc2)NC(=O)OCc2cncs2)C(C)C)cs1 [Ritonavir, ritonavir]
adverse effects [1]: troublesome adverse effects

bioavailability [2]: poor bioavailability
SMILES: CC(C)(C)NC(=O)[C@@H]1C[C@@H]2CCCC[C@@H]2CN1C[C@@H](O)[C@H](Cc1ccccc1)NC(=O)[C@H](CC(N)=O)NC(=O)c1ccc2ccccc2n1 [saquinavir]
